Test results: patent publication US20110306570A1, “Na/K-Atpase Expression as an Indicator for the Treatment of Cancer” (UNIVERSITY OF TOLEDO, priority 2008, published 2011)
“Also recorded” adds a separate entry of the source.

What was measured:
Na/K-ATPase α1 [1] = target: T1, Na/K-ATPase α1 (Mus musculus, UniProt Q8VDN2); assay: Na/K-ATPase α1 expression, SYF cells rescued by c-Src; type: cell-based; details: 0.5 and 1.0 μM ouabain
T1 construct: endogenous in cells; host or cells: SYF cells; SYF cells rescued by c-Src
Description: To further understand the molecular mechanism of ouabain-induced up-regulation of α1, the inventors first addressed the role of Src.

[2] = target: T2, Na/K-ATPase in the plasma membrane (Sus scrofa, UniProt P05024); assay: 3H-ouabain binding after ouabain pre-treatment, LLC-PK1 cells; type: cell-based, pig; details: ouabain up to 10 nM, 72 h
T2 construct: endogenous in cells; host or cells: LLC-PK1 (intact cells)
Protocol: (§1) The cells were washed and 3H-ouabain were performed as described herein. * p<0.05, ** p<0.01
(§2) To assess the functional consequence of these changes in α1 expression, the inventors measured the number of functional Na/K-ATPase in the plasma membrane.
(§3) Afterwards, cells were washed with serum-free medium and subjected to 3H-ouabain binding assay. Briefly, cells were incubated in K+-free Kreb's solution (NaCl 137 mM; KCl 0 mM; CaCl2 2.8 mM; NaH2PO4 0.6 mM; MgSO4 1.2 mM; dextrose; 10 mM; Tris 15 mM; pH7.4) for 15 min, and then exposed to 100 nM 3H-ouabain for 30 min at 37° C. At the end of incubation, the cells were washed 3 times with ice-cold K+-free Kreb's solution, solubilized in 0.1M NaOH-0.2% SDS, and counted in a scintillation counter for 3H-ouabain. […] Paralleled plates were used for counting cell numbers. 3H-ouabain binding data were calculated as binding sites per cell.

LLC-PK1 cells [3] = assay: Cell growth curve (cell counting), LLC-PK1 cells; type: cell-based, pig; details: 10 and 50 nM ouabain
Protocol: (§4) FIG. 1B: The above three cell lines were subcultured in 12-well plates (50,000 cells/well) and serum starved.
(§5) Cell growth curve and cell cycle measurement: Cells were sub-cultured in 12 well plates at 50,000/well in 1 ml culture medium for 24 h. […] At each indicated time point, three wells of control or treated cells were trypsinized and counted. For cell cycle measurement, cells were trypsinized and re-suspended in Citrate buffer (8.55% sucrose, 1.18% Na citrated, 5% DMSO, pH 7.6), and stained with propidium iodide (PI). The stained cells were then analyzed by Flow Cytometry.

DU145 cells [4] = assay: MTT cell growth assay, DU145 cells; type: cell-based, human; details: 24 h
Protocol: (§6) FIG. 1A: LLC-PK1 cells, BT20 cells, and DU145 cells were subcultured in 96-well plates (10,000 cells/well) and serum starved. […] Cells were solublized by adding 100 μl/well detergent provided by ATCC after 90 min of incubation and OD570 was then measured.
(§7) MTT assay for measuring cell proliferation: Cells were sub-cultured in 96 well plates at 10,000 cells/well in 100 μl culture medium. […] Ten μl MTT reagent (3-4,5-dimethylthiazol-2-yl)-2,5-diphenyltetrazolium bromide) was added to each well for 90 min. The formazan crystal was dissolved with detergent and the OD value was measured at 570 nm.

Na/K-ATPase α1 mRNA = Na/K-ATPase α1 mRNA by RT-PCR, LLC-PK1 cells; type: cell-based, pig; details: 10 nM ouabain, 24 h
Protocol: Total RNA was extracted and applied for RT-PCR to probe Na/K-ATPase α1 as described in the Experimental Procedures section.
Quantitative RT-PCR: The cells were seeded in 6-cm dishes and serum-starved for 24 h after the confluence reached 90%. […] Total RNA was extracted using TRIzol and subjected to quantitative RT-PCR analysis. The assays were performed on the AB 7500 real time PCR system with the following protocol: 1 cycle (6 min at 95° C.), 40 cycles (30 s at 95° C., 30 s at 52° C., 30 s at 72° C., and 1 min at 85° C.), followed by a dissociation stage to ensure a single product. The reactions are in a total volume of 25 μl, including 1.25 µl of Sybr Green (Invitrogen), 0.125 µl of DNA polymerase (Denville), 2.5 µl of dNTP (Invitrogen), 10 ng of cDNA. Primer pairs were used at 5 μM concentration, and the sequences are:
The relative Na/K-ATPase al gene expression was calculated by comparative threshold (CT) method (ΔΔCT). To normalize the difference amounts of cDNA, GAPDH was used as an internal control.

A4-11 cells = assay: MTT cell growth assay, Na/K-ATPase knock-down A4-11 cells; type: cell-based, pig; details: ouabain, 16 h
Protocol: as §7

Na/K-ATPase β1 = Na/K-ATPase β1 expression by Western blot, LLC-PK1 cells; type: cell-based, pig; details: 10 nM ouabain, 24 h
Description: Na/K-ATPase, but also in the formation of tight junctions and in suppression of tumor cell growth.

PY-17 cells = assay: MTT cell growth assay, Na/K-ATPase knock-down PY-17 cells; type: cell-based, pig
Protocol: FIG. 3B: The Na/K-ATPase knock-down cells (PY17) were treated with different digitalis compounds and the cell growth was measured by MTT assay.
as §7

LLC-PK1 cells [5] = assay: MTT cell growth assay, LLC-PK1 cells; type: cell-based, pig
Protocol: as §6
Cell growth was then measured using MTT assay.
as §7

C2-9 cells = assay: MTT cell growth assay, caveolin-1 knock-down C2-9 cells; type: cell-based, pig; details: C2-9 caveolin-1 knockdown cells
Protocol: as §7

BT20 cells = assay: Cell growth curve (cell counting), BT20 cells; type: cell-based, human
Protocol: as §4, §5

DU145 cells [6] = assay: Cell growth curve (cell counting), DU145 cells; type: cell-based, human; details: 10 nM ouabain
Protocol: as §4, §5

Akt = Akt phosphorylation (pAkt) by Western blot, C2-9 cells; type: cell-based, pig; details: ouabain 15 min
Protocol: The cell lysates were analyzed for pAkt.

Na/K-ATPase α1 [7] = target: Na/K-ATPase α1 (Homo sapiens, UniProt P05023); assay: Na/K-ATPase α1 expression by Western blot, DU145 cells; type: cell-based; parameters: endogenous in cells; host or cells: BT20, DU145, MDA-MB-435s; details: ouabain 24 h or 72 h exposure
[8] = target: Na/K-ATPase in the plasma membrane (Homo sapiens, UniProt P05023); assay: 3H-ouabain binding after ouabain pre-treatment, BT20 cells; type: cell-based; parameters: endogenous in cells; host or cells: BT20 (intact cells); details: ouabain 72 h
Protocol: as §1, §2, §3

C[C@@H]1O[C@@H](O[C@H]2C[C@@H](O)[C@]3(CO)[C@H]4[C@H](O)C[C@]5(C)[C@@H](C6=CC(=O)OC6)CC[C@]5(O)[C@@H]4CC[C@]3(O)C2)[C@H](O)[C@H](O)[C@H]1O [ouabain]
induction of α1 expression (Na/K-ATPase α1 [1]): three-fold induction
number of 3H-ouabain binding sites (functional plasma membrane Na/K-ATPase) [2]: barely changed the number of binding sites
cell number as a function of time (LLC-PK1 cells [3]): increased the number of LLC-PK1 cells in a time-dependent manner
effect on cell growth (MTT) (DU145 cells [4]; 10-50 nM ouabain): significant inhibition of cell growth
stimulatory effect on cell growth (MTT) (DU145 cells [4]; different concentrations of ouabain): failed to detect any stimulatory effect
levels of α1 mRNA (Na/K-ATPase α1 mRNA): no effect on levels of α1 mRNA
growth stimulation (MTT) (A4-11 cells): No growth stimulation was detected
Na/K-ATPase β1 expression (Na/K-ATPase β1): modest increase in β1 expression
growth stimulation (MTT) (PY-17 cells; PY17 cells, ouabain, 16 h): No growth stimulation was detected
reduction in cell growth (MTT) (PY-17 cells; PY-17 cells, 10 nM ouabain): more than 30%
cell growth with ouabain in rapamycin pre-treated cells (MTT) (LLC-PK1 cells [5]; LLC-PK1 cells pre-treated with rapamycin, 10 nM ouabain): significant inhibition of cell growth; also recorded: significant inhibition of cell proliferation
effect on cell growth (MTT) (LLC-PK1 cells [5]; LLC-PK1 cells, ouabain 1 to 50 nM, 24 h): stimulated cell growth
ouabain-induced cell growth response (MTT) (C2-9 cells): abolished ouabain-induced cell growth stimulation
block of cell growth (cell counting) (BT20 cells; 50 nM ouabain): completely block the growth
cell number as a function of time (BT20 cells; 10 and 50 nM ouabain): significantly reduced the number of BT20 cells
block of cell growth (cell counting) (DU145 cells [6]): completely block the growth
Akt stimulation (pAkt) (Akt): failed to stimulate Akt
cellular amount of Na/K-ATPase α1 (Na/K-ATPase α1 [7]): reduced the cellular amount of α1
surface active Na/K-ATPase (3H-ouabain binding) [8]: significant decrease in surface active Na/K-ATPase
